Consider 15 compounds from the supplement of paper PMC7840683.

± gives the standard deviation of the averaged measurements.

This experiment concerns HepaRG. As to the kind of experiment: LDH release cytotoxicity, % of total lysis control; higher = more cytotoxic. To be noted: 48 h. In short, it runs like this: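 Single-lot HepaRG cells on collagen I-coated 96-well plates were exposed for 48 h in duplicate, in serum-free induction medium with 0.5% DMSO, to eight-point half-log series (test chemicals top 100 µM). Total lysis wells received 0.1% Triton X, and LDH leakage into 50 µL spent medium was read as resorufin fluorescence (CytoTox-ONE, Tecan Safire). Percent cytotoxicity was normalized to on-plate vehicle and total lysis controls and averaged over the duplicates.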

For the compound `C#CC(C)(C)NC(=O)c1cc(Cl)cc(Cl)c1` [Propyzamide], the LDH release cytotoxicity (0.03162 µM) was -1.48 ± 1.2%; the LDH release cytotoxicity (0.1 µM) is -0.106 ± 0.45%; the LDH release cytotoxicity (0.3162278 µM) is -1.18 ± 0.17%; the LDH release cytotoxicity (1 µM) was -0.534 ± 0.42%; the LDH release cytotoxicity (3.16228 µM) was -1.13 ± 0.49%; the LDH release cytotoxicity (10 µM) is -0.249 ± 0.6%. Also, the LDH release cytotoxicity (31.6228 µM) is -0.378 ± 0.49% and the LDH release cytotoxicity (100 µM) was 1.49 ± 0.29%.
Take `O=S1OCC2C(CO1)C1(Cl)C(Cl)=C(Cl)C2(Cl)C1(Cl)Cl` (stereo not given) [Endosulfan]: the LDH release cytotoxicity (0.03162 µM) worked out at 0.0956 ± 0.07%; the LDH release cytotoxicity (0.1 µM) was -0.361 ± 0.27%; the LDH release cytotoxicity (0.3162278 µM) was -0.482 ± 0.4%; the LDH release cytotoxicity (1 µM) is -0.273 ± 0.024%; the LDH release cytotoxicity (3.16228 µM) is -0.151 ± 0.84%; the LDH release cytotoxicity (10 µM) stood at 0.616 ± 0.33%. For the same compound, the LDH release cytotoxicity is -0.612 ± 0.076% (31.6228 µM) and 14.5 ± 0.024% (100 µM).
For `Oc1cc(Cl)c(Cl)cc1Cl` [2,4,5-Trichlorophenol], the LDH release cytotoxicity is, setting by setting: (0.03162 µM) -1.03 ± 1.1%; (0.1 µM) -1.29 ± 0.21%; (0.3162278 µM) -1.7 ± 1.3%; (1 µM) -1.77 ± 0.63%; (3.16228 µM) -1.83 ± 0.36%; (10 µM) -1.75 ± 0.2%. The LDH release cytotoxicity is -1.87 ± 1.3% (31.6228 µM) and -0.358 ± 0.97% (100 µM).
As for `CC(C)(C)c1ccc(O)c(C(C)(C)C)c1` [2,4-Di-tert-butylphenol], the LDH release cytotoxicity (0.03162 µM) is -2.05 ± 0.42%; the LDH release cytotoxicity (0.1 µM) is -1.71 ± 0.24%; the LDH release cytotoxicity (0.3162278 µM) is -1.9 ± 1.1%; the LDH release cytotoxicity (1 µM) was -2.07 ± 0.9%; the LDH release cytotoxicity (3.16228 µM) is -1.83 ± 0.043%; the LDH release cytotoxicity (10 µM) is -1.53 ± 0.18%. In addition, the LDH release cytotoxicity reads like this: (31.6228 µM) -0.783 ± 0.87%; (100 µM) 0.8 ± 0.4%.
Turning to `CCCCOC(=O)CCCCCCCCC(=O)OCCCC` [Dibutyl decanedioate], the LDH release cytotoxicity was -1.01 ± 0.4% (0.03162 µM); -1.61 ± 0.65% (0.1 µM); -1.81 ± 0.16% (0.3162278 µM); -2.3 ± 0.41% (1 µM); -2.91 ± 0.79% (3.16228 µM); -1.92 ± 0.027% (10 µM). For the same compound, the LDH release cytotoxicity is -1.43 ± 1% (31.6228 µM) and 0.112 ± 0.92% (100 µM).
Turning to `c1cc[n+]2c(c1)-c1cccc[n+]1CC2` [Diquat dibromide monohydrate], the LDH release cytotoxicity (0.03162 µM) was -1.01 ± 0.048%; the LDH release cytotoxicity (0.1 µM) amounted to 0.359 ± 1.1%; the LDH release cytotoxicity (0.3162278 µM) amounted to 0.818 ± 0.33%; the LDH release cytotoxicity (1 µM) came out at 0.472 ± 0.19%; the LDH release cytotoxicity (3.16228 µM) turned out to be 0.215 ± 0.51%; the LDH release cytotoxicity (10 µM) came out at 1.64 ± 0.66%. Moreover, the LDH release cytotoxicity was -0.425 ± 0.39% (31.6228 µM) and 2.13 ± 0.58% (100 µM).
Consider `CC(=O)OCCC(C)C` [3-Methylbutyl acetate], for which the LDH release cytotoxicity (0.03162 µM) is -1.61 ± 1.2%; the LDH release cytotoxicity (0.1 µM) was -1.62 ± 0.34%; the LDH release cytotoxicity (0.3162278 µM) was -0.432 ± 0.2%; the LDH release cytotoxicity (1 µM) was -1.89 ± 0.41%; the LDH release cytotoxicity (3.16228 µM) is -0.737 ± 0.29%; the LDH release cytotoxicity (10 µM) is 0.266 ± 1.3%. Also, the LDH release cytotoxicity by setting is: (31.6228 µM) 1.88 ± 0.52%; (100 µM) 2.4 ± 0.52%.
As to `c1ccc(N=Nc2ccccc2)cc1` [Azobenzene], the LDH release cytotoxicity is, setting by setting: (0.03162 µM) -1.57 ± 0.37%; (0.1 µM) -1.67 ± 0.46%; (0.3162278 µM) -0.316 ± 1.5%; (1 µM) -2 ± 0.14%; (3.16228 µM) -1.63 ± 0.18%; (10 µM) 0.0427 ± 0.32%. The LDH release cytotoxicity runs as follows: (31.6228 µM) 1.14 ± 0.012%; (100 µM) 3.66 ± 1.6%.
As for `CCCCOC(=O)C(C)Oc1ccc(Oc2ccc(C(F)(F)F)cn2)cc1` (stereo not given) [Fluazifop-butyl], the LDH release cytotoxicity (0.03162 µM) was -0.307 ± 2.5%; the LDH release cytotoxicity (0.1 µM) is -0.771 ± 1.4%; the LDH release cytotoxicity (0.3162278 µM) was -0.631 ± 0.81%; the LDH release cytotoxicity (1 µM) was -0.375 ± 0.17%; the LDH release cytotoxicity (3.16228 µM) is -0.996 ± 0.14%; the LDH release cytotoxicity (10 µM) came out at 0.207 ± 1.2%. The LDH release cytotoxicity reads like this: (31.6228 µM) 0.479 ± 1.7%; (100 µM) 1.84 ± 2.7%.
With `CN1CCN(c2ccccc2C=C2SCCN(c3ccc(Cl)c(Cl)c3)C2=O)CC1` [Elzasonan], the LDH release cytotoxicity by setting is: (0.03162 µM) 0.236 ± 2.3%; (0.1 µM) 0.483 ± 1.1%; (0.3162278 µM) 0.649 ± 0.75%; (1 µM) -0.238 ± 0.039%; (3.16228 µM) -0.446 ± 0.23%; (10 µM) 0.355 ± 0.19%. The LDH release cytotoxicity was 9.77 ± 0.73% (31.6228 µM) and 88.8 ± 3.5% (100 µM).
`CSc1nnc(C(C)(C)C)c(=O)n1N` [Metribuzin]: the LDH release cytotoxicity is, setting by setting: (0.03162 µM) -0.754 ± 0.83%; (0.1 µM) 0.58 ± 1%; (0.3162278 µM) -0.959 ± 0.2%; (1 µM) -1.09 ± 0.56%; (3.16228 µM) -1.24 ± 0.2%; (10 µM) -0.985 ± 0.14%. Moreover, the LDH release cytotoxicity (31.6228 µM) is -0.751 ± 0.37% and the LDH release cytotoxicity (100 µM) was found to be 0.317 ± 0.26%.
With `Oc1cc(Cl)ccc1Oc1ccc(Cl)cc1Cl` [Triclosan], the LDH release cytotoxicity is, setting by setting: (0.0322552 µM) -1.38 ± 0.38%; (0.102 µM) -2.17 ± 0.73%; (0.322552 µM) -2.07 ± 0.23%; (1.02 µM) -1.47 ± 0.84%; (3.2255232 µM) -2.05 ± 1.2%; (10.2 µM) -1.6 ± 1.3%. Besides, the LDH release cytotoxicity is -1.09 ± 1.9% (32.2552 µM) and -1.09 ± 0.31% (102 µM).
Take `CN(C)C=O` [N,N-Dimethylformamide]: the LDH release cytotoxicity was -0.983 ± 1% (0.03162 µM); -2.55 ± 0.58% (0.1 µM); -1.61 ± 0.38% (0.3162278 µM); -2.12 ± 0.24% (1 µM); -2.02 ± 0.55% (3.16228 µM); -1.22 ± 0.21% (10 µM). The LDH release cytotoxicity (31.6228 µM) was -0.581 ± 0.99% and the LDH release cytotoxicity (100 µM) was 0.434 ± 0.12%.
In the case of `CN(C)C(=O)Nc1cccc(C(F)(F)F)c1` [Fluometuron], the LDH release cytotoxicity reads like this: (0.03162 µM) -0.415 ± 0.25%; (0.1 µM) -0.308 ± 0.37%; (0.3162278 µM) -0.631 ± 0.97%; (1 µM) -0.564 ± 1.4%; (3.16228 µM) -0.69 ± 0.18%; (10 µM) 0.366 ± 0.1%. In addition, the LDH release cytotoxicity was -0.569 ± 0.084% (31.6228 µM) and 0.377 ± 0.36% (100 µM).
In the case of `Cc1ccc(-c2cc(C(F)(F)F)nn2-c2ccc(S(N)(=O)=O)cc2)cc1` [Celecoxib], the LDH release cytotoxicity is -1.06 ± 0.3% (0.03162 µM); -0.435 ± 0.23% (0.1 µM); -0.88 ± 0.78% (0.3162278 µM); -1.96 ± 0.9% (1 µM); -1.21 ± 1% (3.16228 µM); -0.583 ± 0.15% (10 µM). Further, the LDH release cytotoxicity reads like this: (31.6228 µM) 3.13 ± 1.4%; (100 µM) 89.34 ± 0.16%.
